Legend:
Type in all cases: cell-based, Human
[1] = system: HaCaT cells; experiment: Comet assay for HaCaT exposed to UVB radiation; settings: semi-quantitative by Image J
Description: FIG. 5D: Comet assay for HaCaT exposed to UVB radiation. After cell treatment, cells were trypsinized and collect for comet assay. The tail intensity was semi-quantitatively analyzed using Image J.
Both human keratinocyte (HaCaT) and mouse embryonic fibroblast (MEF) cells were used, and the protein levels of γH2AX and phosphor-Chk were used as DNA damage marker. […] Similar results are observed in MEF cells as both the phosphorylation level of H2AX and Chk reduced at early stage post UVB radiation (FIG. 5B). […] To further show the protection effect of carnosol on UVB-irradiated cell, a comet assay was performed. […] Thus, carnosol ast least partially protect the DNA damage from UVB radiation.

[2] = system: NF-κB; experiment: Electrophoretic mobility shift assay (EMSA), HaCaT nuclear extract; settings: 20 μM carnosol; for NF-κB activity induction (EMSA): UVB alone about 2.6 fold
Description: FIGS. 7A-7F: Carnosol inhibited UVB-induced NF-κB activation. Cells were exposed to UVB radiation in the presence or absence of carnosol. Cells were lysed at indicated time point and protein levels were measured by western blot analysis. (FIG. 7A) Western blot for IκB protein level in HaCaT cells at 2, 4 h post UVB radiation at 1, 10 or 20 μM carnosol treatment. (FIG. 7B) Western blot analysis for IκB protein level in HaCaT cells at 6 h post UVB radiation in the presence or absence of carnosol. (FIG. 7C) Western blot analysis for IκB protein level in MEF cells at 6 h post UVB radiation in the presence or absence of carnosol. (FIG. 7D) Western blot for 5276 site phosphorylation of NF-κB in HaCaT cells at 6 h post UVB with indicated carnosol concentration. (FIG. 7E) EMSA assay for HaCaT cells at 2, 4, 6 h post UVB radiation in the presence or absence of carnosol (20 μM). (FIG. 7F) Statistical analysis of the EMSA assay using two to three sets of independent experiments. *p<0.05 versus control group, **p<0.05 versus UV group at indicated time point.
A 22-bp synthetic oligonucleotide (5′-[…]-3′) [SEQ ID NO:1] containing the specific NF-κB-binding site was annealed and labeled with γ-^32P-ATP using T4 polynucleotide kinase. A DNA-binding reaction mixture of total 20 μL containing poly(dI:dC), labeled probe, binding buffer (10 mM pH 8.0 Tris HCl, 150 mM KCl, 0.5 mM EDTA, 0.1% Triton-X 100, 12.5% Glycerol and 0.2 mM DTT) and 10 jag of cell nuclear extract was incubated at room temperature for 30 min and loaded onto a 5% nondenaturing polyacrylamide gel for electrophoresis. The gel was run in 0.5×TBE buffer at 120 V, transferred to a double layer of Whatman paper and dried on a gel dryer for 45-60 mM at 76° C. The dried gel was used to expose an autoradiography film (Denville) at −80° C. and the NF-κB bound ^32P-labeled DNA was detected, and the band intensity was analyzed by Image J.

[3] = system: NO* in HaCaT cells; experiment: Nitric oxide measurement (DAF-2DA) after UVB radiation; settings: 20 μM carnosol
Description: FIGS. 4A-4B: Quantitative analysis of NO* and ONOO^− after UVB radiation. HaCaT cells were irradiated with UVB radiation in the presence or absence of carnosol (20 μM). At indicated time point, cells were stained with DAF-2DA or DAR. The fluorescent intensity was then measured and normalized to cell viability. (FIG. 4A) Quantitative measurement of NO*. (FIG. 4B) Quantitative measurement of ONOO^−. *p<0.05 versus corresponded group with carnosol treatment upon UVB radiation.
The level of NO* was measured by 5 mM diaminofluorescein diacetate (DAF-2DA) (ex490/em520 nm) and ONOO^− was measured by 5 mM diaminorhodamine (DAR) (ex488/em515 nm). 1×10^5 HaCaT cells were seeded in 96-well plate one day before measurement. […] The cells were then incubated in dark for 2 h at room temperature and the fluorescence was measured by luminometer (Molecular devices Spectra Max M2). The reading was then normalized by AlamarBlue cell viability assay (Life technology). 10% of the Alamar Blue reagent was added to cells with medium followed by 2 h incubation at 37° C. in dark then read the fluorescent at ex570/em590 nm using luminometer (Molecular devices Spectra Max M2).
Both NO* and ONOO^− are induced by UVB radiation. By using DAF-2DA (5 mM) and DAR (5 mM), the effect of carnosol on intracellular NO* and ONOO^− level, in a time dependent manner upon UVB radiation, was also measured.

CC(C)c1cc2c(c(O)c1O)[C@@]13CCCC(C)(C)[C@@H]1C[C@@H]2OC3=O [carnosol]
comet tail intensity upon UVB radiation [1]: almost by half
NF-κB activity (DNA binding, EMSA) ([2]; 2 h post UVB, UVB alone induced by 20%): no statistically significant change
NF-κB activity induction (EMSA) ([2]; 4 h post UVB): 2.2 fold
NF-κB activity induction (EMSA) ([2]; 6 h post UVB): 1.5 fold
reduction of NO* level ([3]; average from 2 h to 24 h post UVB): about 40%
NO* level of cells without radiation ([3]; no UVB): little effect

Source: patent US20190388389A1, “METHODS AND COMPOSITIONS OF CARNOSOL FOR INHIBITING UVB-INDUCED SKIN DAMAGE” (Ohio University, priority 2017, published 2019)
